In ChEMBL document CHEMBL4706710, “Synthesis and evaluation of novel thiosemicarbazone and semicarbazone analogs with both anti-proliferative and anti-metastatic activities against triple negative breast cancer” (Bioorg Med Chem, 2021):
pIC50: −log10 of the molar value. One block for each compound: values may come before it. Active and inactive are the calls of the source. The calls are words filed in the database; no cut-off is given here.

What was measured:
MCF7 [1] = assay: Antiproliferative activity against human MCF7 cells assessed as reduction in cell viability after 48 hrs by MTT assay; type: functional, cell-based; conditions: MCF7, 48 h
MDA-MB-231 [2] = assay: Antiproliferative activity against human MDA-MB-231 cells assessed as reduction in cell viability after 48 hrs by MTT assay; type: functional, cell-based; conditions: MDA-MB-231, 48 h
A549 = assay: Antiproliferative activity against human A549 cells assessed as reduction in cell viability after 48 hrs by MTT assay; type: functional, cell-based; conditions: A549, 48 h
HT-29 = assay: Antiproliferative activity against human HT-29 cells assessed as reduction in cell viability after 48 hrs by MTT assay; type: functional, cell-based; conditions: HT-29, 48 h
MDA-MB-231 [3] = assay: Potency index, ratio of hecogenin IC50 to test compound IC50 for antiproliferative activity against human MDA-MB-231 cells; type: functional
MCF7 [4] = assay: Potency index, ratio of hecogenin IC50 to test compound IC50 for antiproliferative activity against human MCF7 cells; type: functional
HUVEC = assay: Cytotoxicity against human HUVEC cells assessed as reduction in cell viability after 48 hrs by MTT assay; type: cell-based
MDA-MB-231 [5] = assay: Induction of apoptosis in human MDA-MB-231 cells assessed as increase in early apoptotic cells at 10 uM by annexin V-FITC/propidium iodide staining based flow cytometric analysis; type: functional, cell-based; conditions: time 3-9 hrs, TDE = time-dependent effect
MDA-MB-231 [6] = assay: Induction of apoptosis in human MDA-MB-231 cells assessed as increase in late apoptotic cells at 10 uM by annexin V-FITC/propidium iodide staining based flow cytometric analysis; type: functional, cell-based; conditions: time 3-9 hrs, TDE = time-dependent effect
MDA-MB-231 [7] = assay: Induction of apoptosis in human MDA-MB-231 cells assessed as viable cells at 10 uM after 3 hrs by annexin V-FITC/propidium iodide staining based flow cytometric analysis (reference value: 91.2%); type: functional; conditions: read-out: Activity
MDA-MB-231 [8] = assay: Induction of apoptosis in human MDA-MB-231 cells assessed as viable cells at 10 uM after 6 hrs by annexin V-FITC/propidium iodide staining based flow cytometric analysis (reference value: 91.2%); type: functional; conditions: read-out: Activity
MDA-MB-231 [9] = assay: Induction of apoptosis in human MDA-MB-231 cells assessed as viable cells at 10 uM after 9 hrs by annexin V-FITC/propidium iodide staining based flow cytometric analysis (reference value: 91.2%); type: functional; conditions: read-out: Activity
MDA-MB-231 [10] = assay: Induction of apoptosis in human MDA-MB-231 cells assessed as early apoptotic cells at 10 uM after 3 hrs by annexin V-FITC/propidium iodide staining based flow cytometric analysis (reference value: 2.7%); type: functional
MDA-MB-231 [11] = assay: Induction of apoptosis in human MDA-MB-231 cells assessed as early apoptotic cells at 10 uM after 6 hrs by annexin V-FITC/propidium iodide staining based flow cytometric analysis (reference value: 2.7%); type: functional
MDA-MB-231 [12] = assay: Induction of apoptosis in human MDA-MB-231 cells assessed as early apoptotic cells at 10 uM after 9 hrs by annexin V-FITC/propidium iodide staining based flow cytometric analysis (reference value: 2.7%); type: functional
MDA-MB-231 [13] = assay: Induction of apoptosis in human MDA-MB-231 cells assessed as late apoptotic cells at 10 uM after 3 hrs by annexin V-FITC/propidium iodide staining based flow cytometric analysis (reference value: 3.1%); type: functional
MDA-MB-231 [14] = assay: Induction of apoptosis in human MDA-MB-231 cells assessed as late apoptotic cells at 10 uM after 6 hrs by annexin V-FITC/propidium iodide staining based flow cytometric analysis (reference value: 3.1%); type: functional
MDA-MB-231 [15] = assay: Induction of apoptosis in human MDA-MB-231 cells assessed as late apoptotic cells at 10 uM after 9 hrs by annexin V-FITC/propidium iodide staining based flow cytometric analysis (reference value: 3.1%); type: functional
MDA-MB-231 [16] = assay: Induction of apoptosis in human MDA-MB-231 cells assessed as necrotic cells at 10 uM after 3 hrs by annexin V-FITC/propidium iodide staining based flow cytometric analysis (reference value: 3%); type: functional
MDA-MB-231 [17] = assay: Induction of apoptosis in human MDA-MB-231 cells assessed as necrotic cells at 10 uM after 6 hrs by annexin V-FITC/propidium iodide staining based flow cytometric analysis (reference value: 3%); type: functional
MDA-MB-231 [18] = assay: Induction of apoptosis in human MDA-MB-231 cells assessed as necrotic cells at 10 uM after 9 hrs by annexin V-FITC/propidium iodide staining based flow cytometric analysis (reference value: 3%); type: functional
MDA-MB-231 [19] = assay: Induction of cell cycle arrest in human MDA-MB-231 cells assessed as accumulation at sub-G1 phase at 10 uM after 48 hrs by propidium iodide staining based flow cytometric analysis (reference value: 3.25%); type: functional
MDA-MB-231 [20] = assay: Induction of cell cycle arrest in human MDA-MB-231 cells assessed as accumulation at sub-G1 phase at 20 uM after 48 hrs by propidium iodide staining based flow cytometric analysis (reference value: 3.25%); type: functional
MDA-MB-231 [21] = assay: Induction of cell cycle arrest in human MDA-MB-231 cells assessed as accumulation at sub-G1 phase at 40 uM after 48 hrs by propidium iodide staining based flow cytometric analysis (reference value: 3.25%); type: functional
MCF7 [22] = assay: Induction of cell cycle arrest in human MCF7 cells assessed as accumulation at sub-G1 phase at 10 uM after 48 hrs by propidium iodide staining based flow cytometric analysis (reference value: 3.04%); type: functional
MCF7 [23] = assay: Induction of cell cycle arrest in human MCF7 cells assessed as accumulation at sub-G1 phase at 20 uM after 48 hrs by propidium iodide staining based flow cytometric analysis (reference value: 3.04%); type: functional
MCF7 [24] = assay: Induction of cell cycle arrest in human MCF7 cells assessed as accumulation at sub-G1 phase at 40 uM after 48 hrs by propidium iodide staining based flow cytometric analysis (reference value: 3.04%); type: functional
MCF7 [25] = assay: Induction of cell cycle arrest in human MCF7 cells assessed as accumulation at sub-G1 phase after 48 hrs by propidium iodide staining based flow cytometric analysis; type: functional; conditions: dose 10-40 µM
MDA-MB-231 [26] = assay: Induction of cell cycle arrest in human MDA-MB-231 cells assessed as accumulation at sub-G1 phase after 48 hrs by propidium iodide staining based flow cytometric analysis; type: functional; conditions: dose 10-40 µM
MDA-MB-231 [27] = assay: Inhibition of cell migration in human MDA-MB-231 cells at 20 uM after 20 hrs by inverted microscopic method; type: functional, cell-based
MDA-MB-231 [28] = assay: Antiinvasive activity against in human MDA-MB-231 cells at 20 uM after 24 hrs by matrigel coated transwell assay; type: functional, cell-based

- pIC50 (MCF7 [1]): 4.94
- pIC50 (MDA-MB-231 [2]): 4.81
- pIC50 (A549): 4.64
- pIC50 (HT-29): 4.75
SMILES: CC(=O)O[C@H]1CC[C@@]2(C)[C@@H](CC[C@H]3[C@@H]4CC=C(/C(C)=N/NC(=O)Nc5ccccc5)[C@@]4(C)C(=O)C[C@@H]32)C1

- pIC50 (MCF7 [1]): 5.67
- pIC50 (MDA-MB-231 [2]): 4.98
- pIC50 (A549): 5.11
- pIC50 (HT-29): 4.97
SMILES: CC(=O)O[C@H]1CC[C@@]2(C)[C@@H](CC[C@H]3[C@@H]4CC=C(/C(C)=N/NC(=S)Nc5ccccc5)[C@@]4(C)C(=O)C[C@@H]32)C1
- Ratio IC50 (MDA-MB-231 [3]): >10
- Ratio IC50 (MCF7 [4]): >10

- pIC50 (MCF7 [1]): 4.53
- pIC50 (MDA-MB-231 [2]): < 4.40
- pIC50 (A549): < 4.40
- pIC50 (HT-29): 4.43
SMILES: CC(=O)O[C@H]1CC[C@@]2(C)[C@@H](CC[C@@H]3[C@@H]2CC(=O)N[C@]2(C)C(/C(C)=N/NC(=S)Nc4ccccc4C)=CC[C@@H]32)C1

- pIC50 (MCF7 [1]): 5.76
- pIC50 (MDA-MB-231 [2]): 5.23
- pIC50 (A549): 5.16
- pIC50 (HT-29): 5.11
SMILES: CC(=O)O[C@H]1CC[C@@]2(C)[C@@H](CC[C@H]3[C@@H]4CC=C(/C(C)=N/NC(N)=O)[C@@]4(C)C(=O)C[C@@H]32)C1
- pIC50 (HUVEC): < 4.00
- Ratio IC50 (MDA-MB-231 [3]): >10
- Ratio IC50 (MCF7 [4]): >10

- pIC50 (MCF7 [1]): 4.72
- pIC50 (MDA-MB-231 [2]): 4.59
- pIC50 (A549): 4.45
- pIC50 (HT-29): 4.47
SMILES: CC(=O)O[C@H]1CC[C@@]2(C)[C@@H](CC[C@@H]3[C@@H]2CC(=O)N[C@]2(C)C(/C(C)=N/NC(=S)Nc4ccccc4)=CC[C@@H]32)C1

- pIC50 (MCF7 [1]): 5.80
- pIC50 (MDA-MB-231 [2]): 5.57
- pIC50 (A549): 5.26
- pIC50 (HT-29): 5.17
SMILES: CC(=O)O[C@H]1CC[C@@]2(C)[C@@H](CC[C@H]3[C@@H]4CC=C(/C(C)=N/NC(N)=S)[C@@]4(C)C(=O)C[C@@H]32)C1
- pIC50 (HUVEC): < 4.00
- Activity (MDA-MB-231 [5]): Tde
- Activity (MDA-MB-231 [6]): Tde
- viability at 10 µM (MDA-MB-231 [7]): 77.4%
- viability at 10 µM (MDA-MB-231 [8]): 74.1%
- viability at 10 µM (MDA-MB-231 [9]): 68.8%
- Activity (MDA-MB-231 [10]): 5.9%
- Activity (MDA-MB-231 [11]): 6.3%
- Activity (MDA-MB-231 [12]): 7.8%
- Activity (MDA-MB-231 [13]): 9.5%
- Activity (MDA-MB-231 [14]): 12.1%
- Activity (MDA-MB-231 [15]): 15.2%
- Activity (MDA-MB-231 [16]): 7.2%
- Activity (MDA-MB-231 [17]): 7.5%
- Activity (MDA-MB-231 [18]): 8.2%
- Activity (MDA-MB-231 [19]): 14.82%
- Activity (MDA-MB-231 [20]): 39.79%
- Activity (MDA-MB-231 [21]): 54.95%
- Activity (MCF7 [22]): 25.52%
- Activity (MCF7 [23]): 44.95%
- Activity (MCF7 [24]): 67.72%
- Activity (MCF7 [25]): Dose-dependent effect
- Activity (MDA-MB-231 [26]): Dose-dependent effect
- inhibition (MDA-MB-231 [27]): Active
- Activity (MDA-MB-231 [28]): Active
- Ratio IC50 (MDA-MB-231 [3]): >10
- Ratio IC50 (MCF7 [4]): >10

The remaining lines, values behind:

SMILES: CC(=O)O[C@H]1CC[C@@]2(C)[C@@H](CC[C@@H]3[C@@H]2CC(=O)N[C@]2(C)C(/C(C)=N/NC(=S)Nc4ccc(C(F)(F)F)cc4)=CC[C@@H]32)C1
- pIC50 (MCF7 [1]): 4.64
- pIC50 (MDA-MB-231 [2]): 4.60
- pIC50 (A549): 4.44
- pIC50 (HT-29): 4.47

SMILES: CC(=O)O[C@H]1CC[C@@]2(C)[C@@H](CC[C@H]3[C@@H]4CC=C(/C(C)=N/NC(=S)Nc5ccc(C(F)(F)F)cc5)[C@@]4(C)C(=O)C[C@@H]32)C1
- pIC50 (MCF7 [1]): 5.16
- pIC50 (MDA-MB-231 [2]): 4.93
- pIC50 (A549): 5.01
- pIC50 (HT-29): 4.95

SMILES: CC(=O)O[C@H]1CC[C@@]2(C)[C@@H](CC[C@@H]3[C@@H]2CC(=O)N[C@]2(C)C(/C(C)=N/NC(N)=O)=CC[C@@H]32)C1
- pIC50 (MCF7 [1]): 4.76
- pIC50 (MDA-MB-231 [2]): 4.72
- pIC50 (A549): 4.54
- pIC50 (HT-29): 4.54

SMILES: CC(=O)O[C@H]1CC[C@@]2(C)[C@@H](CC[C@@H]3[C@@H]2CC(=O)N[C@]2(C)C(/C(C)=N/NC(N)=S)=CC[C@@H]32)C1
- pIC50 (MCF7 [1]): 4.82
- pIC50 (MDA-MB-231 [2]): 4.78
- pIC50 (A549): 4.54
- pIC50 (HT-29): 4.57

SMILES: CC(=O)O[C@H]1CC[C@@]2(C)[C@@H](CC[C@H]3[C@@H]4CC=C(/C(C)=N/NC(=S)Nc5ccccc5C)[C@@]4(C)C(=O)C[C@@H]32)C1
- pIC50 (MCF7 [1]): 5.15
- pIC50 (MDA-MB-231 [2]): 4.85
- pIC50 (A549): 4.77
- pIC50 (HT-29): 4.88

SMILES: CC(=O)O[C@H]1CC[C@@]2(C)[C@@H](CC[C@@H]3[C@@H]2CC(=O)N[C@]2(C)C(/C(C)=N/NC(=O)Nc4ccccc4)=CC[C@@H]32)C1
- pIC50 (MCF7 [1]): 4.45
- pIC50 (MDA-MB-231 [2]): < 4.40
- pIC50 (A549): < 4.40
- pIC50 (HT-29): < 4.40

SMILES: C[C@@H]1CC[C@@]2(OC1)O[C@H]1C[C@H]3[C@@H]4CC[C@H]5C[C@@H](O)CC[C@]5(C)[C@H]4CC(=O)[C@]3(C)[C@H]1[C@@H]2C
- pIC50 (MCF7 [1]): 4.54
- pIC50 (MDA-MB-231 [2]): 4.51
- pIC50 (A549): < 4.40
- pIC50 (HT-29): < 4.40
- pIC50 (HUVEC): < 4.00
